Measurements from ChEMBL document CHEMBL1142399, “Water-soluble pleuromutilin derivative with excellent in vitro and in vivo antibacterial activity against gram-positive pathogens” (J Med Chem, 2008).
Values after ≈ are worked out from the molar mass of the structure shown.

Experiments:
[1] = tested on: Mycoplasmoides pneumoniae; experiment: Antibacterial activity against Mycoplasma pneumoniae FH Liu by broth microdilution method; assay type: functional
[2] = tested on: Peptostreptococcus anaerobius; experiment: Antibacterial activity against Peptostreptococcus anaerobius GAI 5506 by broth microdilution method; assay type: functional
Streptococcus pneumoniae [3] = experiment: microbe, parasite or virus in culture; details: ATCC 49619
Streptococcus pneumoniae [4] = experiment: Antibacterial activity against penicillin-susceptible Streptococcus pneumoniae ATCC 49619 in mouse dosed twice iv 1 hr and 4 hrs after infection; assay type: functional; details: ATCC 49619, iv
[5] = tested on: Streptococcus intermedius; experiment: Antibacterial activity against Streptococcus intermedius GAI 7416 by broth microdilution method; assay type: functional
[6] = Solubility in water; assay type: physicochemical
Atopobium parvulum = experiment: Antibacterial activity against Atopobium parvulum GAI 5542 by broth microdilution method; assay type: functional; details: Lancefieldella parvula
Clostridium perfringens = experiment: Antibacterial activity against Clostridium perfringens GAI 5526 by broth microdilution method; assay type: functional
Streptococcus pyogenes = experiment: Antibacterial activity against Streptococcus pyogenes ATCC 12344 by broth microdilution method; assay type: functional
Staphylococcus aureus [7] = experiment: microbe, parasite or virus in culture
Staphylococcus aureus [8] = experiment: Antibacterial activity against methicillin-susceptible Staphylococcus aureus Smith in mouse dosed twice iv 1 hr and 4 hrs after infection; assay type: functional
Haemophilus influenzae = experiment: Antibacterial activity against Haemophilus influenzae TH13 by broth microdilution method; assay type: functional
Enterococcus faecalis = experiment: microbe, parasite or virus in culture; details: ATCC 29212
Cutibacterium acnes = experiment: Antibacterial activity against Propionibacterium acnes GAI 5568 by broth microdilution method; assay type: functional
[9] = tested on: Propionibacterium granulosum; experiment: Antibacterial activity against Propionibacterium granulosum GAI 7414 by broth microdilution method; assay type: functional; details: Cutibacterium granulosum
Streptococcus pneumoniae [10] = experiment: Antibacterial activity against penicillin-resistant Streptococcus pneumoniae KT2524 in mouse dosed iv 1 hr after infection; assay type: functional
Streptococcus pneumoniae [11] = experiment: microbe, parasite or virus in culture
Enterococcus faecium [12] = experiment: Antibacterial activity against vancomycin-resistant Enterococcus faecium KU1778 clinical isolate by broth microdilution method; assay type: functional
Staphylococcus aureus [13] = experiment: microbe, parasite or virus in culture; details: Smith
[14] = tested on: Staphylococcus saccharolyticus; experiment: Antibacterial activity against Staphylococcus saccharolyticus GAI 5520 by broth microdilution method; assay type: functional
Staphylococcus aureus [15] = experiment: microbe, parasite or virus in culture; remark: listed apart in the source
Staphylococcus aureus [16] = experiment: microbe, parasite or virus in culture; details: KMP9
Streptococcus pneumoniae [17] = experiment: Antibacterial activity against penicillin-susceptible Streptococcus pneumoniae ATCC 49619 in mouse dosed iv 1 hr after infection; assay type: functional; details: ATCC 49619, iv
[18] = tested on: Mycoplasmoides pneumoniae; experiment: Antibacterial activity against Mycoplasma pneumoniae Mac by broth microdilution method; assay type: functional
Staphylococcus aureus [19] = experiment: Antibacterial activity against methicillin-susceptible Staphylococcus aureus Smith in po dosed mouse twice daily; assay type: functional
Staphylococcus aureus [20] = experiment: Antibacterial activity against methicillin-susceptible Staphylococcus aureus Smith in mouse dosed iv 1 hr after infection; assay type: functional
Enterococcus faecium [21] = experiment: microbe, parasite or virus in culture; details: ATCC 19434
Streptococcus pneumoniae [22] = experiment: Antibacterial activity against penicillin-resistant Streptococcus pneumoniae KT2524 in mouse dosed twice iv 1 hr and 4 hrs after infection; assay type: functional
Staphylococcus aureus [23] = experiment: Antibacterial activity against methicillin-resistant Staphylococcus aureus KT0116 in mouse dosed twice iv 1 hr and 4 hrs after infection; assay type: functional
[24] = tested on: Peptoniphilus asaccharolyticus; experiment: Antibacterial activity against Peptostreptococcus asaccharolyticus GAI 5534 by broth microdilution method; assay type: functional
Staphylococcus aureus [25] = experiment: Antibacterial activity against methicillin-resistant Staphylococcus aureus KT0116 in mouse dosed iv 1 hr after infection; assay type: functional
Moraxella catarrhalis = experiment: Antibacterial activity against Moraxella catarrhalis K1209 by broth microdilution method; assay type: functional
Finegoldia magna = experiment: Antibacterial activity against Peptostreptococcus magnus GAI 5528 by broth microdilution method; assay type: functional
Streptococcus pneumoniae [26] = experiment: Antibacterial activity against penicillin-susceptible Streptococcus pneumoniae ATCC 6303 in mouse pulmonary infection model assessed as survival at 6.25 mg/kg, ip twice daily for 3 days; assay type: functional; details: route intraperitoneal
[27] = tested on: Staphylococcus epidermidis; experiment: Antibacterial activity against Staphylococcus epidermidis ATCC 12228 by broth microdilution method; assay type: functional

## C=C[C@]1(C)C[C@@H](OC(=O)CSC2CCN(C(=O)CCn3cnc4c(N5CCNCC5)nc(N)nc43)CC2)[C@@]2(C)C3C(=O)CC[C@@]3(CC[C@H]2C)[C@@H](C)[C@@H]1O (stereo not given in full)
[1]
  MIC: 0.008 µg/mL (≈ 0.0107 µM)
[2]
  MIC: 0.032 µg/mL (≈ 0.0426 µM)
Streptococcus pneumoniae [3]
  MIC: 0.063 µg/mL (≈ 0.0839 µM)
Streptococcus pneumoniae [4]
  ED50: 1.34 mg/kg
[5]
  MIC: 0.25 µg/mL (≈ 0.333 µM)
[6]
  solubility: 50 mg/mL (≈ 66600 µM)
Atopobium parvulum
  MIC: 0.25 µg/mL (≈ 0.333 µM)
Clostridium perfringens
  MIC: 0.063 µg/mL (≈ 0.0839 µM)
Streptococcus pyogenes
  MIC: 0.032 µg/mL (≈ 0.0426 µM)
Staphylococcus aureus [7]
  MIC: 0.5 µg/mL (≈ 0.666 µM)
Staphylococcus aureus [8]
  ED50: 1.51 mg/kg
Haemophilus influenzae
  MIC: 0.125 µg/mL (≈ 0.166 µM)
Enterococcus faecalis
  MIC: 64 µg/mL (≈ 85.2 µM)
Cutibacterium acnes
  MIC: 0.008 µg/mL (≈ 0.0107 µM)
[9]
  MIC: 0.016 µg/mL (≈ 0.0213 µM)
Streptococcus pneumoniae [10]
  ED50: 1.55 mg/kg
Streptococcus pneumoniae [11]
  MIC: 0.063 µg/mL (≈ 0.0839 µM)
Enterococcus faecium [12]
  MIC: 0.063 µg/mL (≈ 0.0839 µM)
Staphylococcus aureus [13]
  MIC: 0.25 µg/mL (≈ 0.333 µM)
[14]
  MIC: 0.06 µg/mL (≈ 0.0799 µM)
Staphylococcus aureus [15]
  MIC: 0.063 µg/mL (≈ 0.0839 µM)
Staphylococcus aureus [16]
  MIC: 0.5 µg/mL (≈ 0.666 µM)
Streptococcus pneumoniae [17]
  ED50: 1.54 mg/kg
[18]
  MIC: 0.008 µg/mL (≈ 0.0107 µM)
Staphylococcus aureus [19]
  ED50: > 50 mg/kg
Staphylococcus aureus [20]
  ED50: 1.86 mg/kg
Enterococcus faecium [21]
  MIC: 0.063 µg/mL (≈ 0.0839 µM)
Streptococcus pneumoniae [22]
  ED50: 1.88 mg/kg
Staphylococcus aureus [23]
  ED50: 0.91 mg/kg
[24]
  MIC: 0.032 µg/mL (≈ 0.0426 µM)
Staphylococcus aureus [25]
  ED50: 2.15 mg/kg
Moraxella catarrhalis
  MIC: 0.032 µg/mL (≈ 0.0426 µM)
Finegoldia magna
  MIC: 0.063 µg/mL (≈ 0.0839 µM)
Streptococcus pneumoniae [26]
  Activity: 50%
[27]
  MIC: 0.063 µg/mL (≈ 0.0839 µM)
